Results published in ChEMBL document CHEMBL4823252 (J Med Chem, 2021).
The source made the active and inactive calls. No cut-off for these calls is given here.

Tests used:
MOLM-13 [1] = assay: Antitumor activity against human MOLM-13 cells xenografted in mouse assessed as tumor growth inhibition at 20 mg/kg, po administered for 16 days measured once every 2 days relative to control; type: functional; conditions: MOLM-13, po, 384 h, time 16 day, read-out: TGI
[2] = AUC (0 to infinity) in Sprague-Dawley rat at 10 mg/kg, po; type: ADME, organism-based; set-up: route oral, time infinity, dose 10 mg/kg; conditions: in vivo
MV4-11 [3] = assay: Antitumor activity against human MV4-11 cells xenografted in mouse assessed as tumor growth inhibition at 10 mg/kg, po administered for 20 days measured once every 2 days relative to control; type: functional; conditions: MV4-11, po, 480 h, time 20 day, read-out: TGI
HepG2 = assay: Antiproliferative activity against human HepG2 cells measured after 72 hrs by CCK8 assay; type: functional, cell-based; conditions: HepG2, 72 h
MV4-11 [4] = assay: Antitumor activity against human MV4-11 cells xenografted in po dosed mouse assessed as tumor growth inhibition administered for 20 days measured once every 2 days; type: functional, organism-based; conditions: time 20.0 day
[5] = test system: Receptor-type tyrosine-protein kinase FLT3 (Homo sapiens), P36888 [N841I]; assay: Binding affinity to FLT3 N841I mutant (unknown origin) at 1000 nM relative to control
MOLM-13 [6] = assay: Antiproliferative activity against human quizartinib-resistant MOLM-13 cells at 333 nM incubated for 72 hrs by CCK8 assay relative to control; type: functional
[7] = Toxicity in mouse xenografted with human MOLM-13 cells assessed as effect on heart at 10 to 40 mg/kg, po administered for 20 days by hematoxylin and eosin staining assay; type: organism-based; conditions: in vivo, 480 h, dose 10-40 mg/kg, time 20 day
MOLM-13 [8] = assay: Antitumor activity against human MOLM-13 cells xenografted in po dosed mouse assessed as inhibition of tumor cell proliferation administered for 16 days measured once for every 2 days by Ki67 staining based immunohistochemical analysis; type: functional, organism-based; conditions: time 16.0 day
[9] = test system: Receptor-type tyrosine-protein kinase FLT3 (Homo sapiens), P36888 [K663Q]; assay: Binding affinity to FLT3 K663Q mutant (unknown origin) at 1000 nM relative to control
[10] = test system: Receptor-type tyrosine-protein kinase FLT3 (Homo sapiens), P36888 [D835Y]; assay: Binding affinity to FLT3 D835Y mutant (unknown origin) at 1000 nM relative to control
[11] = molecular target: Receptor-type tyrosine-protein kinase FLT3 (Homo sapiens) (UniProt P36888); assay: Inhibition of FLT3 in human MOLM-13 cells assessed as reduction in STAT5 phosphorylation incubated for 2 hrs by Western blot analysis; type: cell-based
THP-1 = assay: Antiproliferative activity against human THP-1 cells measured after 72 hrs by CCK8 assay; type: functional, cell-based; conditions: THP-1, 72 h
MOLM-13 [12] = assay: Induction of apoptosis in human MOLM-13 cells assessed as viable cells at 10 nM incubated for 24 hrs by flow cytometry (reference value: 92.83%); type: functional; conditions: read-out: Activity
[13] = Half life in Sprague-Dawley rat at 10 mg/kg, po; type: ADME, organism-based; conditions: in vivo
MOLM-13 [14] = assay: Induction of cell cycle arrest in human MOLM-13 cells assessed as accumulation at G2/M phase at 10 nM incubated for 24 hrs by flow cytometry (reference value: […]); type: functional
[15] = molecular target: Receptor-type tyrosine-protein kinase FLT3 (Homo sapiens) (UniProt P36888); assay: Inhibition of FLT3 in human MOLM-13 cells assessed as reduction in ERK phosphorylation incubated for 2 hrs by Western blot analysis; type: cell-based
MOLM-13 [16] = assay: Antitumor activity against human MOLM-13 cells xenografted in mouse assessed as tumor regression at 40 mg/kg, po administered for 16 days measured on day 4 relative to control; type: functional; conditions: time 16 day
[17] = molecular target: Receptor-type tyrosine-protein kinase FLT3 (Homo sapiens) (UniProt P36888); assay: Inhibition of FLT3 in human MV4-11 cells assessed as reduction in STAT5 phosphorylation at 10 uM incubated for 2 hrs by Western blot analysis; type: cell-based
MOLM-13 [18] = assay: Antitumor activity against human MOLM-13 cells xenografted in po dosed mouse assessed as induction of apoptosis administered for 16 days measured once for every 2 days by caspase3 staining based immunohistochemical analysis; type: functional, organism-based; conditions: time 16.0 day
[19] = Toxicity in mouse xenografted with human MOLM-13 cells assessed as effect on lung at 10 to 40 mg/kg, po administered for 20 days by hematoxylin and eosin staining assay; type: organism-based; conditions: in vivo, 480 h, dose 10-40 mg/kg, time 20 day
HCT-116 = assay: Antiproliferative activity against human HCT116 cells measured after 72 hrs by CCK8 assay; type: functional, cell-based; conditions: HCT-116, 72 h
HT-29 = assay: Antiproliferative activity against human HT-29 cells measured after 72 hrs by CCK8 assay; type: functional, cell-based; conditions: HT-29, 72 h
[20] = MRT (0 to last) in Sprague-Dawley rat at 10 mg/kg, po; type: ADME, organism-based; conditions: in vivo
Homo sapiens = organism: Homo sapiens; assay: Binding affinity to FLT3 ITD D835V mutant (unknown origin) at 1000 nM relative to control
[21] = test system: Receptor-type tyrosine-protein kinase FLT3 (Homo sapiens), P36888 [D835V]; assay: Binding affinity to FLT3 D835V mutant (unknown origin) at 1000 nM relative to control

Cc1c(NC(=O)CCN2CCCC2)c[nH]c1/C=C1\C(=O)Nc2ccc(F)cc21
inhibition in vivo at 20 mg/kg (MOLM-13 [1]): 98% | AUC(0-inf) [2]: 22700 ng·h/mL | inhibition in vivo at 10 mg/kg (MV4-11 [3]): 93.4% | IC50 (HepG2): 1690 nM | Activity (MV4-11 [4]): Dose-Dependent Effect | Activity [5]: Active | Activity (MOLM-13 [6]): 13.4% | Activity [7]: Non-Toxic | Activity (MOLM-13 [8]): Dose-Dependent Effect | Activity [9]: Active | Activity [10]: Active | Activity [11]: Dose-Dependent Effect | IC50 (THP-1): 3150 nM | viability at 0.01 µM (MOLM-13 [12]): 62.3% | half-life [13]: 6.1 h | Activity (MOLM-13 [14]): 2.32% | Activity [15]: Dose-Dependent Effect | Activity (MOLM-13 [16]): 100% | Activity [17]: Active | Activity (MOLM-13 [18]): Dose-Dependent Effect | Activity [19]: Non-Toxic | IC50 (HCT-116): 3980 nM | IC50 (HT-29): 1540 nM | MRT last [20]: 6.6 h | Activity (Homo sapiens): Active | Activity [21]: Active
